Reference: patent US6046238A, “Method for treating or preventing the spread of acne vulgaris” (TriStrata, Inc., priority 1999, dated 2000)
Values after ≈ are worked out from the molar mass of the structure shown. “Also recorded” adds a separate entry of the source. Where two headings read alike, the source gives them in different places.

How the values were obtained:
[1] = prevention and treatment of foot malodor; type: in vivo, human; settings: 1% in talc powder
Experimental: A typical test for prophylactic effect in preventing the development of, as well as treatment of, foot malodor was carried out as follows. A test composition in powder form was prepared by mixing 1 g of finely powdered phenyl 2-acetoxyethanoic acid with 99 g of talc powder. The talc powder alone was used as a control vehicle.
A human subject had persistent foot malodor all year round. […] On the first morning, the subject was instructed to spread the test composition lightly on the left foot and also inside the hose. The control vehicle was used on the right foot and inside the hose. […] The subject was then instructed to apply the test composition on both feet the second morning.
A total of six subjects (three females; three males) participated in several studies.
A test composition containing 1% phenyl 2-acetoxyethanoic acid in powder form was prepared by mixing thoroughly 1 g of finely powdered compound with 99 g of talc powder. The talc powder alone was used as a control vehicle. The test composition and the control vehicle were packaged in one-ounce powder containers. The participating subjects were instructed to lightly spread the test composition on the bottom of the left foot and inside the hose or sock on the first morning.
The criteria for ineffectiveness or effectiveness of the test composition were based on presence or absence of malodor as detected by olfactory sense of smell. Both feet were monitored by the subject and at least one other person in the evening.
The subjects were then instructed to apply the test composition on both feet the next morning. […] The same topical applications were continued by all the participants for several days to confirm the above results.

Micrococcus luteus = assay: MIC Agar Dilution Test, Micrococcus luteus; type: cell-based; settings: M. luteus
Text: (§1) The following strains of microorganisms were used in Minimum Inhibitory Concentration (MIC) tests for phenyl 2-acetoxyethanoic acid in this example and for benzoyl peroxide, chlorhexidine gluconate and triclosan in the following examples. In total, five strains were used for S. aureus, five strains were used for S. epidermidis, two strains were used for M. sedentarius, three strains were used for M. luteus, two strains were used for B. epidermis, three strains were used for C. minutissium, one strain was used for S. marcescens, three strains were used for P. aeruginosa, four strains were used for E. coli, and thirty-two strains were used for P. acnes.
(§2) Antimicrobial effects were determined based on MIC Agar Dilution Test utilizing Trypticase Soy Agar II (BBL) incorporation plates with and without 10% intralipid (Kabi Pharmacia Inc.). Initially, phenyl 2-acetoxyethanoic acid was prepared as a 2 mg/ml (0.2%) solution in water. This solution with serial dilution was incorporated into the test agar plates. The MIC test gave similar results when the same species but a different strain was used.
(§3) Under the same test conditions described in Example 1, benzoyl peroxide was prepared as a 2.5 mg/ml (0.25%) solution in water. This solution with serial dilution was incorporated into the test agar plates. Typical test results are shown as follows.
(§4) Under the same test conditions described in Example 1, chlorhexidine gluconate was prepared as a 2 mg/ml (0.2%) solution in water. This solution with serial dilution was incorporated into the test agar plates. Typical test results are shown as follows.
(§5) Under the same test conditions described in Example 1, triclosan was prepared as a 10 mg/ml (1%) solution in water. This solution with serial dilution was incorporated into the test agar plates. Typical test results are shown as follows.
(§6) Ten different species of bacteria were used in Minimum Inhibitory Concentration (MIC) tests. The bacteria include S. aureus, S. epidermidis,M. sedentarius, M. luteus, B. epidermis, C. minutissium, S. marcescens, P. aeruginosa, E. coli, and P. acnes. In addition various sources and strains of these bacteria were also included in the tests, and up to 32 different strains of P. acnes were used.
(§7) The test substance selected from phenyl 2-acetoxyethanoic acid, benzoyl peroxide, chlorhexidine gluconate and triclosan was dissolved in water, and the solution with serial dilution was incorporated into the test agar plates. The plates containing different concentrations of test substance were inoculated with a strain of bacterium. MIC is defined as the lowest concentration of the test substance in the plate in which there is no growth of the microorganism.

[2] = treatment of oral infections; type: in vivo, human; settings: 2% composition diluted to 0.1%; oral rinse twice daily
Experimental: Compositions for treatment of oral infections may contain an aryl 2-acetoxyethanoic acid as the only active ingredient. In this case a phenyl 2-acetoxyethanoic acid or diphenyl 2-acetoxyethanoic acid 2% composition was formulated by dissolving the active ingredient 2 g in ethanol 78 ml and propylene glycol 20 ml. Before use, this composition was diluted to 0.1% with water by mixing one part of the composition with 19 parts of water. The treatment involves oral rinse, wash and gargle by keeping the diluted composition inside the oral cavity for a few minutes, and then spit out. Such procedure may be repeated twice daily for several days until the infection is eradicated usually within 5-7 days.

[3] = test system: Staphylococcus epidermidis; assay: MIC Agar Dilution Test, Staphylococcus epidermidis; type: cell-based; settings: S. epidermidis
Text: as §1, §2, §3, §4, §5, §6, §7

[4] = test system: ten different species of bacteria; assay: MIC Agar Dilution Test, panel of ten bacteria; type: cell-based; settings: with or without 10% lipid materials
Text: as §1, §2, §3, §4, §5
In order to determine the antimicrobial effect of an aryl 2-acetoxyethanoicacid, a standard test method of Minimum Inhibitory Concentration (MIC) against the growth of 10 bacteria was used. To determine a prophylactic effect against the development of, as well as a topical effect in the treatment of, body foul door, eleven human subjects participated in this study. More than twenty human subjects participated in a study to determine whether the compositions containing an aryl 2-acetoxyethanoic acid were therapeutically effective for topical treatment of folliculitis and other skin lesions, nail infections and mucosal infections caused by microbial infections. Scientific and test results are overviewed as follows.
as §6, §7

[5] = reversal of corticosteroid unresponsiveness in psoriasis; type: in vivo, human; settings: added once daily to corticosteroid twice daily; seven patients
Experimental: To determine the therapeutic responsive effect of an aryl 2-acetoxyethanoicacid against psoriasis seven patient participated in this study. A test composition was prepared by dissolving 1 g phenyl 2-acetoxyethanoic acid or diphenyl 2-acetoxyethanoic acid in 2 ml ethanol. The solution thus obtained was mixed with 60 g petrolatum and 37 g mineral oil. The anhydrous ointment thus formulated was packaged in one-ounce jars.
When the drug unresponsiveness to a corticosteroid occurred, the participating patients were instructed to apply in addition the test composition once daily to the lesions on the left side of the body only. Topical applications of the corticosteroid were continued twice daily to both sides of the body. […] While psoriatic lesions on the right side of the body remained unresponsive to the topical corticosteroid, the lesions on the left side started to clear after 3 to 4 weeks of additional topical application with the composition containing an aryl 2-acetoxyethanoic acid.
At this time the patients were instructed to shift the additional topical application to the lesions on the right side instead of the left side of the body. The psoriatic lesions on the right side of the body began to clear after 3 to 4 weeks of additional topical application with the composition containing aryl 2-acetoxyethanoic acid.

Escherichia coli = assay: MIC Agar Dilution Test, Escherichia coli; type: cell-based; settings: E. coli
Text: as §1, §2, §3, §4, §5, §6, §7

[6] = 10% intralipid, read-out: MIC Lipid
[7] = no lipid, read-out: MIC No Lipid

CC(=O)OC(C(=O)O)c1ccccc1 (centres unmarked) [phenyl 2-acetoxyethanoic acid]
overall effectiveness against foot malodor [1]: topically effective in preventing the development of and in treating foot malodor; also recorded: topically effective in preventing the development of and was also therapeutically effective for topical treatment of foot malodor | malodor of both feet at the end of the second day ([1]; both feet treated): produced no detectable malodor | malodor of left foot by the first evening ([1]; left foot treated, right foot vehicle): produced no detectable malodor in all the participating subjects | malodor on continued application ([1]; several days): complete suppression of malodor was sustained | MIC (Micrococcus luteus; [6]): 1000 µg/mL (≈ 5.15 mM) | MIC (Micrococcus luteus; [7]): 1000 µg/mL (≈ 5.15 mM) | time within which oral infection is usually eradicated [2]: 5 to 7 days | MIC [3, 6]: 1000 µg/mL (≈ 5.15 mM) | MIC [3, 7]: 1000 µg/mL (≈ 5.15 mM) | inhibitory effects against the growth of all ten bacteria [4]: had inhibitory effects against all of the above bacteria | inhibitory effects against the growth of all ten bacteria ([4]; listed as Phenyl 2-acetoxyethanoic acid): showed inhibitory effects against the growth of all ten bacteria tested | onset of improvement of psoriatic lesions, left side [5]: began to improve after one week | MIC (Escherichia coli; [6]): 1000 µg/mL (≈ 5.15 mM) | MIC (Escherichia coli; [7]): 1000 µg/mL (≈ 5.15 mM)
